In PubChem BioAssay AID1963971 (Molecular Pharmacology Branch, DTP, NCI, 2024):
pIC50: −log10 of the molar value.

System: 953936-095-R-J2-PDC spheroids with HUVEC/MSC, viability
Test: Anticancer human tumor 953936-095-R-J2-PDC patient-derived cervical squamous cell carcinoma cell line growth inhibition [PI3K]
Conditions: for pIC50: curve of first compound; for viability, T/C: stronger effect = lower value
How it was run: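 Viability of mixed-cell spheroids was determined after exposure to pairwise combinations, one partner being inavolisib, alpelisib, duvelisib or copanlisib. Highest tested concentration matched clinical Cmax where known and 10 microM where not, descending in half-log steps.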

[1] = second compound 0.00316 µM, first compound 0.0316 µM
[2] = second compound 0.00316 µM, first compound 0.1 µM
[3] = second compound 0.00316 µM, first compound 0.316 µM
[4] = second compound 0.00316 µM, first compound 1 µM
[5] = second compound 0.01 µM, first compound 0.0316 µM
[6] = second compound 0.01 µM, first compound 0.1 µM
[7] = second compound 0.01 µM, first compound 0.316 µM
[8] = second compound 0.01 µM, first compound 1 µM
[9] = second compound 0.0316 µM, first compound 0.0316 µM
[10] = second compound 0.0316 µM, first compound 0.1 µM
[11] = second compound 0.0316 µM, first compound 0.316 µM
[12] = second compound 0.0316 µM, first compound 1 µM
[13] = second compound 0.1 µM, first compound 0.0316 µM
[14] = second compound 0.1 µM, first compound 0.1 µM
[15] = second compound 0.1 µM, first compound 0.316 µM
[16] = second compound 0.1 µM, first compound 1 µM
[17] = second compound 0.316 µM, first compound 0.0316 µM
[18] = second compound 0.316 µM, first compound 0.1 µM
[19] = second compound 0.316 µM, first compound 0.316 µM
[20] = second compound 0.316 µM, first compound 1 µM
[21] = second compound 1 µM, first compound 0.0316 µM
[22] = second compound 1 µM, first compound 0.1 µM
[23] = second compound 1 µM, first compound 0.316 µM
[24] = second compound 1 µM, first compound 1 µM
[25] = second compound 0.00316 µM, first compound 3.16 µM
[26] = second compound 0.00316 µM, first compound 10 µM
[27] = second compound 0.01 µM, first compound 3.16 µM
[28] = second compound 0.01 µM, first compound 10 µM
[29] = second compound 0.0316 µM, first compound 3.16 µM
[30] = second compound 0.0316 µM, first compound 10 µM
[31] = second compound 0.1 µM, first compound 3.16 µM
[32] = second compound 0.1 µM, first compound 10 µM
[33] = second compound 0.316 µM, first compound 3.16 µM
[34] = second compound 0.316 µM, first compound 10 µM
[35] = second compound 1 µM, first compound 3.16 µM
[36] = second compound 1 µM, first compound 10 µM
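Note: spheroids exposed to compounds for seven days before read-out.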

Work on `CCN1CCN(Cc2ccc(Nc3ncc(F)c(-c4cc(F)c5nc(C)n(C(C)C)c5c4)n3)nc2)CC1` + CC(Nc1ccc2c(c1)OCCn1cc(N3C(=O)OCC3C(F)F)nc1-2)C(N)=O yielded a pIC50 (second compound 0.00316 µM) of less than 6.00, a pIC50 (second compound 0.01 µM) of less than 6.00 and a pIC50 (second compound 0.0316 µM) of less than 6.00. It also gave a pIC50 (second compound 0.1 µM) of 7.19, a pIC50 (second compound 0.316 µM) greater than 8.50 and a pIC50 (second compound 1 µM) greater than 8.50. For the same molecule, the viability, T/C (second compound 0.00316 µM, first compound 0.00316 µM) was 102%, the viability, T/C (second compound 0.00316 µM, first compound 0.01 µM) was 98.5% and the viability, T/C [1] was 94.6%. It also gave a viability, T/C [2] of 96.6%, a viability, T/C [3] of 89.8% and a viability, T/C [4] of 80.7%. For the same molecule, the viability, T/C (second compound 0.01 µM, first compound 0.00316 µM) was 93%, the viability, T/C (second compound 0.01 µM, first compound 0.01 µM) was 104% and the viability, T/C [5] was 94.2%. The viability, T/C [6] was 83.3%, the viability, T/C [7] was 80% and the viability, T/C [8] was 79.3%. It also gave a viability, T/C (second compound 0.0316 µM, first compound 0.00316 µM) of 73%, a viability, T/C (second compound 0.0316 µM, first compound 0.01 µM) of 79.7% and a viability, T/C [9] of 72.5%. The viability, T/C [10] was 75.8%, the viability, T/C [11] was 63.8% and the viability, T/C [12] was 72.2%. For the same molecule, the viability, T/C (second compound 0.1 µM, first compound 0.00316 µM) was 58.4%, the viability, T/C (second compound 0.1 µM, first compound 0.01 µM) was 53.8% and the viability, T/C [13] was 53.5%. For the same molecule, the viability, T/C [14] was 47.9%, the viability, T/C [15] was 45.8% and the viability, T/C [16] was 48.5%. For the same molecule, the viability, T/C (second compound 0.316 µM, first compound 0.00316 µM) was 34.8%, the viability, T/C (second compound 0.316 µM, first compound 0.01 µM) was 36% and the viability, T/C [17] was 31.1%. The viability, T/C [18] was 32.3%, the viability, T/C [19] was 27.6% and the viability, T/C [20] was 29.4%. It also gave a viability, T/C (second compound 1 µM, first compound 0.00316 µM) of 22%, a viability, T/C (second compound 1 µM, first compound 0.01 µM) of 21.5% and a viability, T/C [21] of 22.7%. The viability, T/C [22] was 18.8%, the viability, T/C [23] was 18.4% and the viability, T/C [24] was 24.7%.

In the case of `Cn1ncc(Cl)c1-c1cc(C(=O)NC(CN)Cc2cccc(F)c2)sc1Cl` (stereo unspecified) + CC(Nc1ccc2c(c1)OCCn1cc(N3C(=O)OCC3C(F)F)nc1-2)C(N)=O, the pIC50 (second compound 0.00316 µM) was 6.21, the pIC50 (second compound 0.01 µM) was 6.30 and the pIC50 (second compound 0.0316 µM) was 6.49. For the same molecule, the pIC50 (second compound 0.1 µM) was 6.74, the pIC50 (second compound 0.316 µM) was greater than 7.50 and the pIC50 (second compound 1 µM) was greater than 7.50. For the same molecule, the viability, T/C [1] was 83.3%, the viability, T/C [2] was 84.3% and the viability, T/C [3] was 62.6%. For the same molecule, the viability, T/C [4] was 40.2%, the viability, T/C [25] was 19.1% and the viability, T/C [26] was 11%. The viability, T/C [5] was 90.4%, the viability, T/C [6] was 87.3% and the viability, T/C [7] was 58.1%. The viability, T/C [8] was 35.1%, the viability, T/C [27] was 17.7% and the viability, T/C [28] was 12.6%. It also gave a viability, T/C [9] of 78.3%, a viability, T/C [10] of 71.3% and a viability, T/C [11] of 49.7%. It also gave a viability, T/C [12] of 27.6%, a viability, T/C [29] of 15.5% and a viability, T/C [30] of 9.96%. It also gave a viability, T/C [13] of 66.6%, a viability, T/C [14] of 61.7% and a viability, T/C [15] of 38.8%. It also gave a viability, T/C [16] of 25.7%, a viability, T/C [31] of 13.6% and a viability, T/C [32] of 10.5%. It also gave a viability, T/C [17] of 36.1%, a viability, T/C [18] of 37.1% and a viability, T/C [19] of 28%. It also gave a viability, T/C [20] of 17.1%, a viability, T/C [33] of 12.9% and a viability, T/C [34] of 7.57%. The viability, T/C [21] was 22.1%, the viability, T/C [22] was 22.5% and the viability, T/C [23] was 18.8%. For the same molecule, the viability, T/C [24] was 13.8%, the viability, T/C [35] was 10.4% and the viability, T/C [36] was 5.59%.

With `Cn1nccc1Nc1nccc(-c2ccn(C(CO)c3ccc(Cl)c(F)c3)c(=O)c2)n1` (stereo unspecified) + CC(Nc1ccc2c(c1)OCCn1cc(N3C(=O)OCC3C(F)F)nc1-2)C(N)=O the pIC50 (second compound 0.00316 µM) was less than 5.00, the pIC50 (second compound 0.01 µM) was less than 5.00 and the pIC50 (second compound 0.0316 µM) was less than 5.00. It also gave a pIC50 (second compound 0.1 µM) of 6.42, a pIC50 (second compound 0.316 µM) greater than 7.50 and a pIC50 (second compound 1 µM) greater than 7.50. For the same molecule, the viability, T/C [1] was 86.2%, the viability, T/C [2] was 87% and the viability, T/C [3] was 93.8%. The viability, T/C [4] was 95.1%, the viability, T/C [25] was 80.4% and the viability, T/C [26] was 71.7%. For the same molecule, the viability, T/C [5] was 84.4%, the viability, T/C [6] was 94% and the viability, T/C [7] was 88.8%. It also gave a viability, T/C [8] of 77.1%, a viability, T/C [27] of 78.8% and a viability, T/C [28] of 70%. It also gave a viability, T/C [9] of 75.2%, a viability, T/C [10] of 68.8% and a viability, T/C [11] of 70.1%. For the same molecule, the viability, T/C [12] was 72%, the viability, T/C [29] was 65.1% and the viability, T/C [30] was 61.9%. For the same molecule, the viability, T/C [13] was 62.1%, the viability, T/C [14] was 52.7% and the viability, T/C [15] was 51.3%. For the same molecule, the viability, T/C [16] was 46.5%, the viability, T/C [31] was 47.8% and the viability, T/C [32] was 40.1%. The viability, T/C [17] was 36.3%, the viability, T/C [18] was 32.8% and the viability, T/C [19] was 31%. For the same molecule, the viability, T/C [20] was 28.4%, the viability, T/C [33] was 24% and the viability, T/C [34] was 19.5%. For the same molecule, the viability, T/C [21] was 21.9%, the viability, T/C [22] was 20.9% and the viability, T/C [23] was 18%. For the same molecule, the viability, T/C [24] was 15.1%, the viability, T/C [35] was 12.6% and the viability, T/C [36] was 8.88%.
